US11013780B2, “Methods of treating female infertility” (Myovant Sciences GmbH, priority 2016, dated 2021)
Read-outs that look alike come from different tables or passages of the source. Where a SMILES comes first, the peptide text is derived from it. [ ]: non-standard residue; d: D form. Arg(Me) = CNC(=N)NCCC[C@H](N)C(=O)O; Hyp = O=C(O)[C@@H]1C[C@@H](O)CN1; azaGly = NNC(=O)O

Assay: Single dose PK, phase 1, healthy Japanese men
Type: in vivo, human
Details: for AUC(0-inf) / CL/F / Cmax / half-life / Tmax / dose excreted: male, human; for AUC(0-inf) / CL/F / Cmax / half-life / Tmax: plasma; for dose excreted: urine
Protocol: Thirty-seven healthy Japanese male subjects aged 50 to 74 years were enrolled into nine cohorts. Subjects enrolled in the first […] cohorts received 0.001, 0.004, 0.01, 0.04, 0.1, 0.25 or 0.5 mg of API-MA or placebo by single SC bolus. In the 0.001 mg cohort, 3 subjects received API-MA and two received placebo. In the remaining cohorts, 3 subjects received API-MA and one received placebo. Subjects enrolled in the eighth and ninth cohorts received 0.25 or 0.5 mg of API-MA or placebo by single 2-hour SC infusion. In both cohorts, 3 subjects received API-MA and one received placebo. The plasma PK analysis set consisted of 31 subjects (bolus cohorts: 25; infusion cohorts: 6), and the urine PK analysis set consisted of 35 subjects (bolus cohorts: 27; infusion cohorts: 8).
To measure urinary excretion of API-MA, urine specimens were collected at the following nominal times: predose, 0 to 4, 4 to 8, 8 to 12, 12 to 24, 24 to 36, 36 to 48 and 48 to 72 hours postdose.

[1] = sc, 0.001 mg, single SC bolus 0.001 mg, mean
[2] = sc, 0.004 mg, single SC bolus 0.004 mg, mean
[3] = sc, 0.01 mg, single SC bolus 0.01 mg, mean
[4] = sc, 0.04 mg, single SC bolus 0.04 mg, mean
[5] = sc, 0.1 mg, single SC bolus 0.1 mg, mean
[6] = sc, 0.25 mg, single 2-hour SC INF 0.25 mg (plasma N = 1)
[7] = sc, 0.25 mg, single SC bolus 0.25 mg, mean
[8] = sc, 0.5 mg, single 2-hour SC INF 0.5 mg, mean
[9] = sc, 0.5 mg, single SC bolus 0.5 mg, mean

## CC(=O)O.CNC(=N)NCCC[C@H](NC(=O)[C@H](CC(C)C)NC(=O)NNC(=O)[C@H](Cc1ccccc1)NC(=O)[C@@H](NC(=O)[C@H](CC(N)=O)NC(=O)[C@@H]1C[C@@H](O)CN1C(=O)[C@@H](Cc1ccc(O)cc1)NC(C)=O)[C@@H](C)O)C(=O)N[C@@H](Cc1c[nH]c2ccccc12)C(N)=O [API-MA, 2-(N-Acetyl-D-tyrosyl-trans-4-hydroxy-L-prolyl-Lasparaginyl-L-threonyl-L-phenylalanyl)-hydrazinocarbonyl-L-leucyl-Nω-methyl-L-arginyl-L-tryptophanamide monoacetate] (Ac-[dY][Hyp]NTF[azaGly]L[Arg(Me)]W-NH2)
Cumulative urinary excretion
  Time by which urinary excretion was essentially complete: ≤ 24 h
[1]
  AUC(0-inf): 0.0541 ng·h/mL
  CL/F: 310 mL/min
  Cmax: 0.0201 ng/mL
sc, 0.001 mg, single SC bolus 0.001 mg, mean, read-out: T½ (converted)
  half-life: 1.59 h
sc, 0.001 mg, single SC bolus 0.001 mg, read-out: Tmax, median (range)
  Tmax: 0.5 h
[2]
  AUC(0-inf): 0.205 ng·h/mL
  CL/F: 330 mL/min
  Cmax: 0.00617 ng/mL
sc, 0.004 mg, single SC bolus 0.004 mg, mean, read-out: T½ (converted)
  half-life: 1.91 h
sc, 0.004 mg, single SC bolus 0.004 mg, read-out: Tmax, median (range)
  Tmax: 0.5 h
[3]
  AUC(0-inf): 0.671 ng·h/mL
  CL/F: 250 mL/min
  Cmax: 0.221 ng/mL
sc, 0.01 mg, single SC bolus 0.01 mg, mean, read-out: T½ (converted)
  half-life: 1.82 h
sc, 0.01 mg, single SC bolus 0.01 mg, read-out: Tmax, median (range)
  Tmax: 0.5 h
[4]
  AUC(0-inf): 2.61 ng·h/mL
  CL/F: 278 mL/min
  Cmax: 0.966 ng/mL
sc, 0.04 mg, single SC bolus 0.04 mg, mean, read-out: T½ (converted)
  half-life: 3.35 h
sc, 0.04 mg, single SC bolus 0.04 mg, read-out: Tmax, median (range)
  Tmax: 0.5 h
[5]
  AUC(0-inf): 5.79 ng·h/mL
  CL/F: 298 mL/min
  Cmax: 2.42 ng/mL
sc, 0.1 mg, single SC bolus 0.1 mg, mean, read-out: T½ (converted)
  half-life: 3.58 h
sc, 0.1 mg, single SC bolus 0.1 mg, read-out: Tmax, median (range)
  Tmax: 0.375 h
[6]
  AUC(0-inf): 13.3 ng·h/mL
  CL/F: 313 mL/min
  Cmax: 4.02 ng/mL
sc, 0.25 mg, single 2-hour SC INF 0.25 mg (plasma N = 1), read-out: Tmax, median (range)
  Tmax: 2.25 h
sc, 0.25 mg, single 2-hour SC INF 0.25 mg (plasma N = 1), read-out: T½ (converted)
  half-life: 3.77 h
[7]
  AUC(0-inf): 18.3 ng·h/mL
  CL/F: 228 mL/min
  Cmax: 5.9 ng/mL
sc, 0.25 mg, single SC bolus 0.25 mg, mean, read-out: T½ (converted)
  half-life: 4.09 h
sc, 0.25 mg, single SC bolus 0.25 mg, read-out: Tmax, median (range)
  Tmax: 0.75 h
[8]
  AUC(0-inf): 34.6 ng·h/mL
  CL/F: 243 mL/min
  Cmax: 8.23 ng/mL
sc, 0.5 mg, single 2-hour SC INF 0.5 mg, mean, read-out: T½ (converted)
  half-life: 4.02 h
sc, 0.5 mg, single 2-hour SC INF 0.5 mg, read-out: Tmax, median (range)
  Tmax: 2.5 h
[9]
  AUC(0-inf): 30 ng·h/mL
  CL/F: 282 mL/min
  Cmax: 9.05 ng/mL
sc, 0.5 mg, single SC bolus 0.5 mg, mean, read-out: T½ (converted)
  half-life: 4.27 h
sc, 0.5 mg, single SC bolus 0.5 mg, read-out: Tmax, median (range)
  Tmax: 0.5 h
sc, SC bolus, read-out: Median Tmax, range over cohorts
  Tmax: 0.375 to 0.75 h
subcutaneous, 0.5 mg, 0.25 and 0.5 mg, read-out: Mean T1/2 at the highest doses
  half-life: 3.77 to 4.27 h
sc, 0.001 mg, single SC bolus 0.001 mg, mean, read-out: Fe (urine)
  dose excreted: 0%
sc, 0.004 mg, single SC bolus 0.004 mg, mean, read-out: Fe (urine)
  dose excreted: 6.16%
sc, 0.01 mg, single SC bolus 0.01 mg, mean, read-out: Fe (urine)
  dose excreted: 5.4%
sc, 0.04 mg, single SC bolus 0.04 mg, mean, read-out: Fe (urine)
  dose excreted: 4.24%
sc, 0.1 mg, single SC bolus 0.1 mg, mean, read-out: Fe (urine)
  dose excreted: 5.2%
sc, 0.25 mg, single 2-hour SC INF 0.25 mg, mean, read-out: Fe (urine)
  dose excreted: 6.21%
sc, 0.25 mg, single SC bolus 0.25 mg, mean, read-out: Fe (urine)
  dose excreted: 7.1%
sc, 0.5 mg, single 2-hour SC INF 0.5 mg, mean, read-out: Fe (urine)
  dose excreted: 5.22%
sc, 0.5 mg, single SC bolus 0.5 mg, mean, read-out: Fe (urine)
  dose excreted: 6.33%
sc, 0.004 to 0.5 mg, bolus and infusion, read-out: Mean Fe, range over cohorts
  dose excreted: 4.24 to 7.1%
Single SC bolus 0.001 mg
  API-MA in urine: No API-MA was detected
